Experimental data from US8952033B2, “4-anilinofuro[2,3-b]quinoline derivatives, their preparation processes, and pharmaceutical compositions comprising the same” (Kaohsiung Medical University, priority 2011, dated 2015).
Marks after values point to notes of the source that are not given here.

Legend:
[1] = system: BT483 (human breast carcinoma cell); test: Preferential antiproliferative activity, BT483; format: cell-based
Protocol: (§1) Determination of GI50 of compounds 13a, 13c, 14a, 14c, 15a, 16a was conducted substantially according to the method as described in the preceding section A entitled “Evaluation of antiproliferative activity”, except that the normal cell line MRC-5 was also utilized, and that camptothecin and daunorubicin were tested instead of compounds 1, 2, 3. The concentration of the respective test compound, which can reduce absorbance by 50% (compared with DMSO), is regarded as GI50, and can be determined via dose-response curves. Determination of GI50 was conducted thrice for each test compound. GI50 is expressed as mean±SD.
(§2) SI stands for selectivity index and was calculated by substituting GI50 into the following formula: D=E/F (2) where • D=SI • E=GI50 of the respective test compound for cells of the normal cell line • F=GI50 of the respective test compound for cells of the cancer cell line The experimental results are summarized in Table 4. […]

[2] = Single-dose pharmacokinetic analysis in CD-1 mice; format: in vivo
Protocol: CD-1 mice were divided into two groups. The first group of mice (n=9) were used to assess the singe-dose pharmacokinetics of the test compounds after intravenous administration, and the second group of mice (n=9) were utilized to assess the singe-dose pharmacokinetics of the test compounds after oral administration. All of the mice were fasted from 4 hours before the administration of the test compounds until 4 hours after the administration of the test compounds.
The assessment for singe-dose pharmacokinetics of the test compounds after intravenous administration was performed as follows. The first group of mice were further randomly divided into three subgroups including compound 13a group (n=3), compound 14a group (n=3), and compound 1 group (n=3). Compounds 13a, 14a, 1 (in polyethylene glycol 400/ethanol/water (30/5/65, v/v/v)) were respectively administered to the mice in compound 13a group, compound 14a group, and compound 1 group at a dose of 2 mg/kg via tail vein injection. Blood samples (0.25 mL) were collected from the mice by virtue of cardiac puncture right before the intravenous administration, and at 2 min, 5 min, 15 min, 30 min, 1 hr, 1.5 hr, 2 hr, 4 hr, 6 hr, 9 hr, 24 hr, and 27 hr after the intravenous administration.
The assessment for singe-dose pharmacokinetics of the test compounds after oral administration was conducted as follows. The second group of mice were further randomly divided into three subgroups including compound 13a group (n=3), compound 14a group (n=3), and compound 1 group (n=3). Compounds 13a, 14a, 1 (in 0.5% methylcellulose) were respectively administered to the mice in compound 13a group, compound 14a group, and compound 1 group at a dose of 20 mg/kg via tube feeding. Blood samples (0.25 mL) were collected from the mice by virtue of cardiac puncture right before the oral administration, and at 15 min, 30 min, 1 hr, 1.5 hr, 2 hr, 4 hr, 6 hr, 9 hr, 24 hr, and 27 hr after the oral administration.
Each of the blood samples was placed in a 0.5 mL Microtainer® tube containing anticoagulant EDTA-K2, followed by mixing evenly. Centrifugation at 7000 g and 4° C. was conducted for 5 minutes. Plasma was collected and was mixed uniformly with a proper amount of acetonitrile, followed by centrifugation. The resultant supernatant was acquired, and was injected into a reversed-phase Biosil ODS column so as to determine the concentration of the respective test compound in plasma (i.e., the plasma concentration of the respective test compound) using a LC-MS/MS system (Waters 2795 LC and Micromass Quattro Ultima). The singe-dose pharmacokinetic parameters of the respective test compound were calculated from the obtained concentration of the respective test compound in plasma (i.e., the obtained plasma concentration of the respective compound) at different time points using WinNonlin Standard Program (version 3.1, Pharsight Corp.)

[3] = system: SF-268 (central nervous system carcinoma cell); test: MTT antiproliferative assay (cell growth %, GI50), SF-268; format: cell-based
Protocol: Antiproliferative activities of the compounds of this invention were evaluated substantially according to the method as described in Tseng, C. […] The cells were treated with the test compounds, i.e., the compounds of this invention (in dimethylsulfoxide (DMSO)), or DMSO for 48 hours.
Before and after the treatment with the test compounds or DMSO, 3-(4,5-dimethylthiazol-2-yl)-2,5-diphenyltetrazolium bromide (MTT, 2 mg/mL, 100 μL) was added to each of the cultures, followed by cultivation for 2 hours. The resultant formazan was dissolved by the addition of DMSO. Absorbance at 570 nm (OD570) was measured using a microtiter plate reader (Dynex MRX-II).
Determination of GI50 was conducted thrice for each test compound. GI50 is expressed as mean±SD.

[4] = system: AGS (human stomach adenocarcinoma cell); test: Preferential antiproliferative activity, AGS; format: cell-based
Protocol: as §1, §2

[5] = intravenous administration, 2 mg/kg

For `C/C(=N\OCCN)c1ccc(Nc2c3ccccc3nc3occc23)cc1` [Compound 13a, (E)-1-(4-(furo[2,3-b]quinolin-4-ylamino)phenyl)ethanone O-2-aminoethyl oxime], the GI50 ([1]; Homo sapiens, BT-483, mean±SD) was 10.2 ± 0.9 µM, the “SI BT483” value ([1]; versus MRC-5) was 4.22 and the “AUC(0-inf)” value [2, 5] was 362.6 ng·h/mL. The CL [2, 5] was 91.9 mL/min/kg, the MRT [2, 5] was 2.5 h and the Vss [2, 5] was 13.5 L/kg. The Vz [2, 5] was 38.8 L/kg, the Cmax ([2]; intravenous administration, 2 mg/kg, extrapolated plasma concentration at 0 hr) was 1488.4 ng/mL and the t1/2 ([2]; intravenous administration, 2 mg/kg, from 0.5-1.5 hr (compd. 1) or 9-27 hr (13a, 14a)) was 4.9^d hr. For the same compound, the Bioavailability ([2]; oral 20 mg/kg versus intravenous 2 mg/kg) was 57.1%, the “AUC(0-inf)” value ([2]; oral administration, 20 mg/kg) was 2071.6 ng·h/mL and the Cmax ([2]; oral administration, 20 mg/kg) was 1905.0 ng/mL. The MRT ([2]; oral administration, 20 mg/kg) was 3.0 h, the Tmax ([2]; oral administration, 20 mg/kg) was 0.5 h and the t1/2 ([2]; oral administration, 20 mg/kg, from 2-6 hr (compd. 1), 2-24 hr (13a), 2-9 hr (14a)) was 3.4 h. For the same compound, the “SI SF-268” value ([3]; GI50 MRC-5 / GI50 SF-268) was 6.84, the GI50 ([3]; Homo sapiens, SF-268, mean±SD, read-out: GI50 SF-268) was 6.26 ± 1.02 µM and the GI50 ([4]; Homo sapiens, mean±SD) was 13.77 ± 0.04 µM. The “SI AGS” value ([4]; versus MRC-5) was 3.09.
